Data published in patent US4018895A, “Aryloxyphenylpropylamines in treating depression” (Eli Lilly and Company, priority 1975, dated 1977).
Like-named read-outs stand apart in the source and are kept apart here.

What was measured:
[1] = test system: hypothermia induced by the injection of reserpine; assay: Reserpine hypothermia reversal test; type: in vivo, mice; conditions: for inhibition in vivo at 1 mg/kg / inhibition in vivo at 3 mg/kg / inhibition in vivo at 0.3 mg/kg / inhibition in vivo at 10 mg/kg: Mus musculus, ip, 1 h, Post-60 min., mice, read-out: Percent Antagonism Reserpine; for inhibition in vivo at 1 mg/kg: 1 mg./kg. intraperitoneally; for inhibition in vivo at 3 mg/kg: 3 mg./kg. intraperitoneally; for inhibition in vivo at 0.3 mg/kg: .3 mg./kg. intraperitoneally; for inhibition in vivo at 10 mg/kg: 10 mg./kg. intraperitoneally; for Activity in reversal of reserpine hypothermia: in words
Experimental: (§1) The apomorphine hypothermia antagonism test is carried out as follows: mice are injected with a dose of apomorphine known to reduce body temperature approximately 4° C. The compound under test is injected 1/2 hour before the injection of the apomorphine and the temperatures measured 1/2 hour after injection. The degree of antagonism is expressed as a percent reduction (as compared with controls) of the temperature decrease produced by the injection of the apomorphine. The reserpine hypothermia reversal test is carried out as follows: groups of mice are injected with reserpine and 16.5 hours later are injected intraperitoneally with graded doses of the drug, a different dose level being given to each group of mice. Temperatures are measured at 1 hour after injection of the drug under test and again the effectiveness of the drug is expressed as a percentage decrease in the hypothermia induced by the injection of reserpine as compared with the control group. In the tablets which follow, Table 4 gives the results in the apomorphine antagonism and reserpine reversal hypothermia tests for the secondary amines of this invention. In the table, the first column gives the substituent attached to the oxygen atom at the 3 position of the propylamine chain; columns 2 to 4 the percent antagonism against apomorphine hypothermia at dose levels of 0.3, 1 and 3 mg./kg. and columns 5-7 the percent reversal of reserpine hypothermia at the same dose levels.

[2] = test system: serotonin uptake by synaptosomes from rat brain; assay: In vitro blockade of serotonin uptake by synaptosomes from rat brain; type: biochemical; conditions: serotonin 0.1 μM
From the text: (§2) This blockade is shown both in vitro with radioactive labelled compounds to determine the amount of monoamine uptake by synaptosomes from rat brain, and in vivo by a variety of methods. Among the physiologically active monoamines whose uptake is blocked by the compounds of this invention are included serotonin, norepinephrine and dopamine (3,4-dihydroxyphenylethylamine). […] Tables 1 and 2 which follow set forth the results of some of the in vitro determinations of the blockage of monoamine uptake by the compounds of this invention. In the tables, column 1 gives the R substituent on the 3-phenylpropylamine and columns 2-4, the concentration in micrograms per ml. that blocks the uptake of a particular amine by 50 percent for the amines--norephinephrine, serotonin, and dopamine. At the head of each column is given the concentration of the particular monoamine used in the experiment.

[3] = test system: hypothermia induced by the injection of apomorphine; assay: Apomorphine hypothermia antagonism test; type: in vivo, mice; conditions: for Activity in antagonism of apomorphine hypothermia: in words
Experimental: as §1, with “The compound under test is injected 1/2 hour before the injection of the apomorphine and the temperatures measured 1/2 hour after injection.” left out

[4] = test system: dopamine uptake by synaptosomes from rat brain; assay: In vitro blockade of dopamine uptake by synaptosomes from rat brain; type: biochemical; conditions: dopamine 0.2 μM
From the text: as §2

[5] = test system: norepinephrine uptake by synaptosomes from rat brain; assay: In vitro blockade of norepinephrine uptake by synaptosomes from rat brain; type: biochemical; conditions: norepinephrine 0.48 μM
From the text: as §2

[6] = Table 5, dimethylamino compounds
[7] = Mus musculus, Table 5, dimethylamino compounds, 1 mg./kg., Pre-30 min., mice, read-out: Percent Antagonism Apomorphine
[8] = Mus musculus, Table 5, dimethylamino compounds, 3 mg./kg., Pre-30 min., mice, read-out: Percent Antagonism Apomorphine
[9] = Mus musculus, Table 5, dimethylamino compounds, 10 mg./kg., Pre-30 min., mice, read-out: Percent Antagonism Apomorphine

Structure (SMILES)	Concentration that blocks 50% of amine uptake, Serotonin ([2]; Table 1, scaffold drawing 3)	Concentration that blocks 50% of amine uptake, Dopamine ([4]; Table 1, scaffold drawing 3)	Concentration that blocks 50% of amine uptake, Norepinephrine ([5]; Table 1, scaffold drawing 3)	inhibition in vivo at 1 mg/kg [3, 7]	inhibition in vivo at 3 mg/kg [3, 8]	inhibition in vivo at 10 mg/kg [3, 9]	also measured
CN(C)CCC(Oc1ccc(F)cc1F)c1ccccc1 (stereo not drawn) [2,4-difluorophenyl]	.3 mcq./ml.	10 mcq./ml.	.2 mcq./ml.				inhibition in vivo at 1 mg/kg ([1]; Table 4, secondary amines): 17%; inhibition in vivo at 3 mg/kg ([1]; Table 4, secondary amines): 27%; inhibition in vivo at 0.3 mg/kg ([1]; Table 4, secondary amines): 13%; inhibition in vivo at 1 mg/kg [1, 6]: 11%; inhibition in vivo at 3 mg/kg [1, 6]: 12%; inhibition in vivo at 10 mg/kg [1, 6]: 30%; inhibition in vivo at 0.3 mg/kg [1, 6]: 23%; Concentration that blocks 50% of amine uptake, Serotonin ([2]; Table 2, scaffold drawing 4): 4.5 µg/mL; Percent Antagonism Apomorphine ([3]; Table 4, secondary amines, 1 mg./kg., Pre-30 min., mice): 53%; Percent Antagonism Apomorphine ([3]; Table 4, secondary amines, 3 mg./kg., Pre-30 min., mice): 64%; Percent Antagonism Apomorphine ([3]; Table 4, secondary amines, .3 mg./kg., Pre-30 min., mice): 20%; Percent Antagonism Apomorphine ([3]; Table 5, dimethylamino compounds, 1 mg./kg., Pre-30 min., mice): 26%; Percent Antagonism Apomorphine ([3]; Table 5, dimethylamino compounds, 3 mg./kg., Pre-30 min., mice): 55%; Percent Antagonism Apomorphine ([3]; Table 5, dimethylamino compounds, 10 mg./kg., Pre-30 min., mice): 98%; Concentration that blocks 50% of amine uptake, Dopamine ([4]; Table 2, scaffold drawing 4): > 100 µg/mL; Concentration that blocks 50% of amine uptake, Norepinephrine ([5]; Table 2, scaffold drawing 4): > 100 µg/mL
Cc1cc(F)ccc1OC(CCN(C)C)c1ccccc1.O=C(O)C(=O)O (stereo not drawn) [4-fluoro-o-tolyl, N,N-dimethyl 3-(p-fluoro-o-tolyloxy)-3-phenylpropylamine oxalate]	.6 mcq./ml.	40 mcq./ml.	2.5 mcq./ml.				
CN(C)CCCN1c2ccccc2CCc2ccccc21 [imipramine, reference compound]							Activity in reversal of reserpine hypothermia [1]: active; Reduction of apomorphine hypothermia ([3]; 10 mg./kg. dose, measured 60 minutes after injection of the apomorphine): 100%; Activity in antagonism of apomorphine hypothermia [3]: active
CN(C)CCC(Oc1cccc(Cl)c1)c1ccccc1 (stereo not drawn) [m-chlorophenyl]				0%	13%	66%	
COc1cccc(OC(CCN(C)C)c2ccccc2)c1.O=C(O)C(=O)O (stereo not drawn) [m-methoxyphenyl, N,N-dimethyl 3-phenyl-3-(m-methoxyphenoxy)propylamine oxalate]	.08 mcq./ml.	.5 mcq./ml.	.2 mcq./ml.				
Cc1cccc(OC(CCN(C)C)c2ccccc2)c1.O=C(O)C(=O)O (stereo not drawn) [m-tolyl, N,N-dimethyl 3-phenyl-3-(m-tolyloxy)propylamine oxalate]	.7 mcq./ml.	> 0 mcq./ml.	12 mcq./ml.				
CN(C)CCC(Oc1cccc(C(F)(F)F)c1)c1ccccc1.O=C(O)C(=O)O (stereo not drawn) [m-trifluoromethylphenyl, N,N-dimethyl 3-phenyl-3-(m-trifluoromethylphenoxy) propylamine oxalate]	.18 mcq./ml.	> 100 mcq./ml.	8 mcq./ml.				
CNCCC=C1c2ccccc2CCc2ccccc21 [nortriptyline, reference compound]							Activity in reversal of reserpine hypothermia [1]: active; Activity in antagonism of apomorphine hypothermia [3]: active
COc1ccccc1OC(CCN(C)C)c1ccccc1 (stereo not drawn) [o-anisyl]				11%	30%	61%	
CN(C)CCC(Oc1ccccc1Br)c1ccccc1.O=C(O)C(=O)O (stereo not drawn) [o-bromophenyl, N,N-dimethyl 3-(o-bromophenoxy)-3-phenylpropylamine oxalate]	.1 mcq./ml.	5 mcq./ml.		19%	40%	47%	inhibition in vivo at 3 mg/kg [1, 6]: 18%; inhibition in vivo at 10 mg/kg [1, 6]: 30%
CN(C)CCC(Oc1ccccc1F)c1ccccc1 (stereo not drawn) [o-fluorophenyl]				-10%	11%	31%	
CN(C)CCC(Oc1ccccc1C(C)(C)C)c1ccccc1.O=C(O)C(=O)O (stereo not drawn) [o-t-butylphenyl, N,N-dimethyl 3-phenyl-3-(o-t-butylphenoxy)propylamine oxalate]	40 mcq./ml.	> 100 mcq./ml.	1.5 mcq./ml.				
Cc1ccccc1OC(CCN(C)C)c1ccccc1 (stereo not drawn) [o-tolyl]					11%	94%	
COc1ccc(OC(CCN(C)C)c2ccccc2)cc1 (stereo not drawn) [p-anisyl]						25%	
CN(C)CCC(Oc1ccc(Cl)cc1)c1ccccc1 (stereo not drawn) [p-chlorophenyl]				7%	43%	85%	inhibition in vivo at 1 mg/kg ([3]; Mus musculus, Table 4, secondary amines, 1 mg./kg., Pre-30 min., mice, read-out: Percent Antagonism Apomorphine): 29%; inhibition in vivo at 3 mg/kg ([3]; Mus musculus, Table 4, secondary amines, 3 mg./kg., Pre-30 min., mice, read-out: Percent Antagonism Apomorphine): 37%; inhibition in vivo at 0.3 mg/kg ([3]; Mus musculus, Table 4, secondary amines, .3 mg./kg., Pre-30 min., mice, read-out: Percent Antagonism Apomorphine): 32%
CN(C)CCC(Oc1ccc(F)cc1)c1ccccc1 (stereo not drawn) [p-fluorophenyl]				26%	63%	116%	inhibition in vivo at 1 mg/kg ([1]; Table 4, secondary amines): 39%; inhibition in vivo at 3 mg/kg ([1]; Table 4, secondary amines): 32%; inhibition in vivo at 0.3 mg/kg ([1]; Table 4, secondary amines): 7%; inhibition in vivo at 1 mg/kg [1, 6]: 10%; inhibition in vivo at 3 mg/kg [1, 6]: 24%; inhibition in vivo at 10 mg/kg [1, 6]: 49%; inhibition in vivo at 0.3 mg/kg [1, 6]: 14%
CN(C)CCC(Oc1ccc(C(F)(F)F)cc1)c1ccccc1 (stereo not drawn) [p-trifluoromethylphenyl]						24%	
CN(C)CCC(Oc1ccc2ccccc2c1)c1ccccc1.O=C(O)C(=O)O (stereo not drawn) [β-naphthyl, N,N-dimethyl 3-(β-naphthyloxy)-3-phenylpropylamine oxalate]	1 mcq./ml.	100 mcq./ml.	> 100 mcq./ml.				
